Source: patent US6423689B1, “Peptidyl calcium channel blockers” (Warner-Lambert Company, priority 1997, dated 2002)

Molecular target: T1, N-type Ca2+ channels in IMR-32 cells (Homo sapiens, UniProt Q00975)
T1 construct: host or cells: IMR-32 cells, differentiated with dibutyryl cAMP and bromodeoxyuridine
Experiment: Inhibition of N-type calcium flux in IMR-32 cells (Indo-1 fluorescence, nitrendipine present)
Format: cell-based
Details: for IC50: IMR-32 cells, 5 μM nitrendipine, K+ depolarization
Method: Measurement of N-type Ca^2+ Channel Blocking Potencies of Compounds in IMR-32 Cells Using the Fluorescent Ca^2+ Indicator Indo-1
IMR-32 cells are a human tumoral cell line of neural origin. […] Calcium flux into these cells may be induced by stimulation with elevated potassium concentrations. The L-channel component of calcium flux may be blocked by adding 5 μM nitrendipine. The remaining component of calcium entry into the IMR-32 cells is due to calcium flux through N-type calcium channels. Intracellular calcium concentrations are measured using the fluorescent calcium indicator Indo 1. The effect of drug concentration on calcium uptake is studied.
The IMR-32 cell line was obtained from the American Type Culture Collection (Rockville, Md.). Cells were grown in Eagle's Minimum Essential Medium with Eagle's salts supplemented with 10% fetal bovine serum, 2 mM L-Gln and antibiotic/antimycotic mixture (Gibco). […] After 7 to 13 days of differentiation, cells were detached using 0.5 mM EDTA and loaded with 5 μM Indo-1 acetoxymethyl ester (Molecular Probes, Eugene, OR) at […] for 45 minutes. Loaded cells were washed twice, resuspended (˜10^7 cells/mL) in assay buffer (10 mM HEPES/Tris pH 7.4 in Hank's Balanced Salt Solution without bicarbonate or phenol red containing 0.5% bovine serum albumin) and kept on ice until use. Fluorescence measurements were carried out in a Photon Technology International (PTI, South Brunswick, N.J.) Model RF-F3004 spectrofluorometer with dual emission monochromators using excitation at 350 nm and emission at 400 and 490 nm. The instrument was equipped with a thermostated cuvette holder with stirring capabilities as well as with a computer-controlled pump which allowed for reagent addition during measurement. Instrument control and data collection was done by PTI's OSCAR software running on an IBM compatible computer. […] Samples were incubated for 10 minutes at 30° C. and then aliquoted into three 10×10 mm disposable acrylic cuvettes. Emission signals at 400 and 490 nm were acquired from each cuvette at 30° C. for 50 seconds. At 20 seconds after the start of reading, cells were depolarized by the addition of 160 μL of stimulation solution (1M KCl, 68 mM CaCl2) to the cuvette via the computer-controlled pump. Ratio of dual emission signals (400 nm/490 nm), which is proportional to intracellular Ca^2+ concentration, was plotted against time, and the difference between maximal response after stimulation and basal value (before stimulation) was determined. Values obtained in this way were plotted as a function of drug concentration. IC50 values of test compounds were calculated by fitting a four-parameter logistic function to the data using the least squares method.

T1 sequence (Q00975 whole entry): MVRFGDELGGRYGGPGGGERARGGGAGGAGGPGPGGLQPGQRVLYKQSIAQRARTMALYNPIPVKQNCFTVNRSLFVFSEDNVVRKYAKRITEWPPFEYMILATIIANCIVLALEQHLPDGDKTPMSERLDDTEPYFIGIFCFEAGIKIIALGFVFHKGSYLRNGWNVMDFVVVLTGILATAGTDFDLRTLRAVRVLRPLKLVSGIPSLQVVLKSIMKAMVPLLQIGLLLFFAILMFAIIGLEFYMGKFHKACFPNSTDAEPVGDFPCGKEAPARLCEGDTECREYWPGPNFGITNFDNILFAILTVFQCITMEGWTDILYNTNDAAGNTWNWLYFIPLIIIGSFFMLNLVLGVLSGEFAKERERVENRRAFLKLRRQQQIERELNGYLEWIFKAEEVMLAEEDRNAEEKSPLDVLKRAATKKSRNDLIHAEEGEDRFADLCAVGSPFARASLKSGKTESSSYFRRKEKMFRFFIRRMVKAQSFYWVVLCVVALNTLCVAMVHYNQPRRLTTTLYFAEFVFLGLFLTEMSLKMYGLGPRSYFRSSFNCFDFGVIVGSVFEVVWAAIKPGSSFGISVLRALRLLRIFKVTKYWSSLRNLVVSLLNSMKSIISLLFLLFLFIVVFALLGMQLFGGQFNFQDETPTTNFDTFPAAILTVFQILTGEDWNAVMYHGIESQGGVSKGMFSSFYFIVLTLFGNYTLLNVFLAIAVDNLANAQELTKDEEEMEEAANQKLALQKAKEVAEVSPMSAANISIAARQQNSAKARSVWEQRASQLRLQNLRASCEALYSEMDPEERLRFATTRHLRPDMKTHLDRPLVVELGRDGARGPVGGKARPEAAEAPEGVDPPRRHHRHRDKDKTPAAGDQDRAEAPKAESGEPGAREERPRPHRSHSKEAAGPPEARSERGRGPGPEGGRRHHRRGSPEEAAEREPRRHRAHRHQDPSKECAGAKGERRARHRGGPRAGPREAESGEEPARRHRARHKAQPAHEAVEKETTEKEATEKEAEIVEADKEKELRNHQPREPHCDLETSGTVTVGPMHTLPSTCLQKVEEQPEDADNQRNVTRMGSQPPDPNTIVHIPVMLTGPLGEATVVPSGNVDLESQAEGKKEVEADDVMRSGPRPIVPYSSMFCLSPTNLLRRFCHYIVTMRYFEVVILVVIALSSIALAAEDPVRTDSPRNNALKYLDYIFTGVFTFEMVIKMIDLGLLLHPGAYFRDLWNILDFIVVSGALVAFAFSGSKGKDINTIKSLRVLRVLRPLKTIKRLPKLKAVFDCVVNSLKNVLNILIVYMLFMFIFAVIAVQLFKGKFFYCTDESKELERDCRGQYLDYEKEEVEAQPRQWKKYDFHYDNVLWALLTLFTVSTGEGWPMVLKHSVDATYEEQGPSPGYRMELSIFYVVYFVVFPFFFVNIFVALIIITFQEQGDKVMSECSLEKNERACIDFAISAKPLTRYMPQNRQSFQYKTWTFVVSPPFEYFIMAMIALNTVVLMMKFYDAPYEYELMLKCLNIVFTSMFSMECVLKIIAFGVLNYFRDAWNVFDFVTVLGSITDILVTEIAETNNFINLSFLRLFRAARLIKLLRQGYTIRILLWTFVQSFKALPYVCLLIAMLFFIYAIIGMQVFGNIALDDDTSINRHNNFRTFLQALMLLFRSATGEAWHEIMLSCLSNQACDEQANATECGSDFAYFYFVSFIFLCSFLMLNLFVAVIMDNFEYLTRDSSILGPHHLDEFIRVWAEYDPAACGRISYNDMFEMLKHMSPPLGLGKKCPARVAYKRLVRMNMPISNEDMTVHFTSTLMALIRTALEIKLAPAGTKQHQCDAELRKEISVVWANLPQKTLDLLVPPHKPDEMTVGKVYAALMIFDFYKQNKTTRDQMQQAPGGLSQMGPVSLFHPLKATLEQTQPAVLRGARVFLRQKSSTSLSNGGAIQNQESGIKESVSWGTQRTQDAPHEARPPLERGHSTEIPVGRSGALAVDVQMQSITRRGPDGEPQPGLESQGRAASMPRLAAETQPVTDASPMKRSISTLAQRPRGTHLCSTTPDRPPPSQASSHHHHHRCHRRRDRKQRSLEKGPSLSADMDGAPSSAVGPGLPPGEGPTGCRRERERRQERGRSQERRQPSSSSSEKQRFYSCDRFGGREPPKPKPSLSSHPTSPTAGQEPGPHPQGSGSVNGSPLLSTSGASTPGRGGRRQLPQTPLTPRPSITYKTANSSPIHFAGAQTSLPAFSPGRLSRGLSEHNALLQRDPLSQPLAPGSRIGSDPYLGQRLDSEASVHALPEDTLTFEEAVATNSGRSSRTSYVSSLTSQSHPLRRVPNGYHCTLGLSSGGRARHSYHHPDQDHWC
T1 sequence (P54289 25-956 partner limits assumed): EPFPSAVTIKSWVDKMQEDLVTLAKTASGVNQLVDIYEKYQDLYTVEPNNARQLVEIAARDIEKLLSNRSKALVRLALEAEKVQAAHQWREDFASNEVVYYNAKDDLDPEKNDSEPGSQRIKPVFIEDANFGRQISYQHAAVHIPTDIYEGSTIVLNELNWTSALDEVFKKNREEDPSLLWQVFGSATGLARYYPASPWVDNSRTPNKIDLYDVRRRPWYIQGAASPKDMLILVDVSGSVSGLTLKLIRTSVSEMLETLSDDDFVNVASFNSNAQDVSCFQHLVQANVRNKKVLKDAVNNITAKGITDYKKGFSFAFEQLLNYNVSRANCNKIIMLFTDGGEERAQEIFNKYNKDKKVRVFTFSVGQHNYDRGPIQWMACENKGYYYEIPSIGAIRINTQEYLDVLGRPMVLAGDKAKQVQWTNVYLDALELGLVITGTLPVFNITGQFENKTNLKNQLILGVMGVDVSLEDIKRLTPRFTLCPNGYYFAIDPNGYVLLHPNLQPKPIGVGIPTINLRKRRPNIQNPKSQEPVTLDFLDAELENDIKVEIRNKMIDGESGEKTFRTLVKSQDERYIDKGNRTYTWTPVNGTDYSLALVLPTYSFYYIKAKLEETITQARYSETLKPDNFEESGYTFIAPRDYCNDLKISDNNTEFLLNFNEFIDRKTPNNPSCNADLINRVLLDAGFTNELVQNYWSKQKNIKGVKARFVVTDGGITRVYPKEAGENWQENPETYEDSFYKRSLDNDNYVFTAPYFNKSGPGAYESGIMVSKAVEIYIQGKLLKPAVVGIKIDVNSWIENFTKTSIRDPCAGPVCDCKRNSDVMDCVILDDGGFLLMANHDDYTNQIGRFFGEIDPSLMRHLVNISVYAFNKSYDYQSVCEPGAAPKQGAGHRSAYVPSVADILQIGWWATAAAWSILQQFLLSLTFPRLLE
T1 sequence (P54289 957-1103 partner limits assumed): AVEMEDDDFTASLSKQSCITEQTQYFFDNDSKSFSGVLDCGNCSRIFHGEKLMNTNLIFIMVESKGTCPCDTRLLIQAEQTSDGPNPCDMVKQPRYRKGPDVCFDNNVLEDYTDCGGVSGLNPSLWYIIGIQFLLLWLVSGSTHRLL
T1 sequence (P54284 whole entry partner): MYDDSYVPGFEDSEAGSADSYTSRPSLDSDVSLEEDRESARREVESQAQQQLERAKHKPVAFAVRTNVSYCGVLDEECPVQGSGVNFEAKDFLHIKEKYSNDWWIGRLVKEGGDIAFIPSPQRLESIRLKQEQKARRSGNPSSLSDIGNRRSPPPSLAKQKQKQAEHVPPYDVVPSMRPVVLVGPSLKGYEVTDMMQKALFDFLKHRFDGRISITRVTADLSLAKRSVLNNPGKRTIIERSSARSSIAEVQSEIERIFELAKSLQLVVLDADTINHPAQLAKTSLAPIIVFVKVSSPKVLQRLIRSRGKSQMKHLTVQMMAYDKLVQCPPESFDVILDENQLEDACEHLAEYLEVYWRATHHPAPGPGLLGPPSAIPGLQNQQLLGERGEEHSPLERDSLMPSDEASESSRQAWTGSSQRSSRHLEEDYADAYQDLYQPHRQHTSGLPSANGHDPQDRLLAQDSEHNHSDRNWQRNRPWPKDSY

## CC(C)C[C@H](NC(=O)N1CCCCCC1)C(=O)N[C@@H](Cc1ccc(N(Cc2ccccc2)Cc2ccccc2)cc1)C(=O)NC(C)(C)C (relative stereo) [Example 133, [S-(R*,R*)]-Azepane-1-carboxylic acid {1-[2-(4-dibenzylamino-phenyl)-1-tert-butylcarbamoyl-ethylcarbamoyl]-3-methyl-butyl}-amide]
  Inhibition of Calcium Flux in IMR-32 Cells % Inhibition at 1 μM: 54%
  Inhibition of Calcium Flux in IMR-32 Cells % Inhibition at 10 μM: 72%

## CCNC(=O)N[C@@H](CC(C)C)C(=O)N[C@@H](Cc1ccc(OCc2ccccc2)cc1)C(=O)OC(C)(C)C (relative stereo) [Example 89, [S-(R*,R*)]-3-(4-Benzyloxy-phenyl)-2-[2-(3-ethyl-ureido)-4-methyl-pentanoylamino]-propionic acid tert-butyl ester]
  Inhibition of Calcium Flux in IMR-32 Cells % Inhibition at 1 μM: 30%

## CC(C)C[C@H](NC(=O)N1CCCCCC1)C(=O)N[C@@H](Cc1ccc(OCc2ccccc2)cc1)C(=O)NCc1ccco1 (relative stereo) [Example 220, [S-(R*,R*)]-Azepane-1-carboxylic acid (1-{2-(4-benzyloxy-phenyl)-1-[(furan-2-ylmethyl)-carbamoyl]-ethylcarbamoyl}-3-methyl-butyl)-amide]
  Inhibition of Calcium Flux in IMR-32 Cells % Inhibition at 1 μM: 40%
  Inhibition of Calcium Flux in IMR-32 Cells % Inhibition at 10 μM: 88%

## Cc1ccc(NC(=S)N[C@@H](CC(C)C)C(=O)N[C@@H](Cc2ccc(OCc3ccccc3)cc2)C(=O)OC(C)(C)C)cc1 (relative stereo) [Example 50, [S-(R*,R*)]-3-(4-Benzyloxy-phenyl)-2-[4-methyl-2-(3-p-tolyl-thioureido)-pentanoylamino]-propionic acid tert-butyl ester]
  Inhibition of Calcium Flux in IMR-32 Cells % Inhibition at 1 μM: 53%
  Inhibition of Calcium Flux in IMR-32 Cells % Inhibition at 10 μM: 85%

## CC(C)C[C@H](NC(=O)Cc1cccs1)C(=O)N[C@@H](Cc1ccc(OCc2ccccc2)cc1)C(=O)OC(C)(C)C (relative stereo) [Example 122, [S-(R*,R*)]-3-(4-Benzyloxy-phenyl)-2-[4-methyl-2-(2-thiophen-2-yl-acetylamino)pentanoylamino]-propionic acid tert-butyl ester]
  Inhibition of Calcium Flux in IMR-32 Cells % Inhibition at 10 μM: 84%

## CNC(=S)N[C@@H](CC(C)C)C(=O)N[C@@H](Cc1ccc(OCc2ccccc2)cc1)C(=O)OC(C)(C)C (relative stereo) [Example 51, [S-(R*,R*)]-3-(4-Benzyloxy-phenyl)-2-[4-methyl-2-(3-methyl-thioureido)-pentanoylamino]-propionic acid tert-butyl ester]
  Inhibition of Calcium Flux in IMR-32 Cells % Inhibition at 1 μM: 32%
  Inhibition of Calcium Flux in IMR-32 Cells % Inhibition at 10 μM: 85%

## CC(C)C[C@H](NC(=O)Nc1ccc(Br)cc1)C(=O)N[C@@H](Cc1ccc(OCc2ccccc2)cc1)C(=O)OC(C)(C)C (relative stereo) [Example 84, [S-(R*,R*)]-3-(4-Benzyloxy-phenyl)-2-{2-[3-(^4-bromo-phenyl)-ureido]-4-methyl-pentanoylamino}-propionic acid tert-butyl ester]
  Inhibition of Calcium Flux in IMR-32 Cells % Inhibition at 1 μM: 49%

## CC(C)C[C@H](NC(=O)Nc1ccc(Cl)cc1Cl)C(=O)N[C@@H](Cc1ccc(OCc2ccccc2)cc1)C(=O)OC(C)(C)C (relative stereo) [Example 82, [S-(R*,R*)]-3-(4-Benzyloxy-phenyl)-2-{2-[3-(2,4-dichloro-phenyl)-ureido]-4-methyl-pentanoylamino}-propionic acid tert-butyl ester]
  Inhibition of Calcium Flux in IMR-32 Cells % Inhibition at 1 μM: 55%

## CC(C)C[C@H](NC(=O)Nc1cc(Cl)cc(Cl)c1)C(=O)N[C@@H](Cc1ccc(OCc2ccccc2)cc1)C(=O)OC(C)(C)C (relative stereo) [Example 86, [S-(R*,R*)]-3-(4-Benzyloxy-phenyl)-2-{2-[3-(3,5-dichloro-phenyl)-ureido]-4-methyl-pentanoylamino}-propionic acid tert-butyl ester]
  Inhibition of Calcium Flux in IMR-32 Cells % Inhibition at 1 μM: 40%

## CC(C)(C)NC(=O)[C@H](Cc1ccc(OCc2ccccc2)cc1)NC(=O)[C@H](CCCCC(=O)OC(C)(C)C)NC(=O)N1CCCCCC1 [Example 164, [S-(R*,R*)]-6-[(Azepane-1-carbonyl)-amino]-6-[2-(4-benzyloxy-phenyl)-1-tert-butylcarbamoyl-ethylcarbamoyl]-hexanoic acid tert-butyl ester]
  IC50: 900 nM

## CCC(COC)NC(=O)C(Cc1ccc(OCc2ccccc2)cc1)NC(=O)C(CC(C)C)NC(=O)N1CCCCCC1 (stereo not drawn) [Example 245, Azepane-1-carboxylic acid {1-[2-(4-benzyloxy-phenyl)-1-(1-methoxymethyl-propylcarbamoyl)-ethylcarbamoyl]-3-methyl-butyl}-amide]
IMR-32
  inhibition at 1 µM: 57%
  inhibition at 10 µM: 89%

## CSc1ccc(NC(=O)N[C@@H](CC(C)C)C(=O)N[C@@H](Cc2ccc(OCc3ccccc3)cc2)C(=O)OC(C)(C)C)cc1 (relative stereo) [Example 64, [S-(R*,R*)]-3-(4-Benzyloxy-phenyl)-2-{4-methyl-2-[3-(4-methylsulfanyl-phenyl)-ureido]-pentanoylamino}-propionic acid tert-butyl ester]
  Inhibition of Calcium Flux in IMR-32 Cells % Inhibition at 1 μM: 31%

## COC(=O)[C@H](Cc1ccc(OC(C)(C)C)cc1)NC(=O)[C@H](CC(C)C)NC(=O)N1CCCCCC1 (relative stereo) [Example 22, [S-(R*,R*)]-2-{2-[(Azepane-1-carbonyl)-amino]-4-methyl-pentanoylamino}-3-(4-tert-butoxy-phenyl)-propionic acid methyl ester]
  Inhibition of Calcium Flux in IMR-32 Cells % Inhibition at 1 μM: 29%

## CC(C)C[C@H](NC(=O)N1CCCCCC1)C(=O)N[C@@H](Cc1ccc(OCc2ccccc2)cc1)C(=O)NC1CCN(Cc2ccccc2)CC1 [Example 271, [S-(R*,R*)]-Azepane-1-carboxylic acid {1-[2-(4-benzyloxy-phenyl)-1-(1-benzyl-piperidin-4-ylcarbamoyl)-ethylcarbamoyl]-3-methyl-butyl}-amide]
IMR-32
  inhibition at 1 µM: 70%
  IC50: 840 nM

## Cc1ccccc1NC(=O)N[C@@H](CC(C)C)C(=O)N[C@@H](Cc1ccc(OCc2ccccc2)cc1)C(=O)OC(C)(C)C (relative stereo) [Example 61, [S-(R*,R*)]-3-(4-Benzyloxy-phenyl)-2-[4-methyl-2-(3-o-tolyl-ureido)-pentanoylamino]-propionic acid tert-butyl ester]
  Inhibition of Calcium Flux in IMR-32 Cells % Inhibition at 1 μM: 34%

## COc1ccc(NC(=O)[C@H](Cc2ccc(OCc3ccccc3)cc2)NC(=O)[C@H](CC(C)C)NC(=O)N2CCCCCC2)cc1 [Example 210, [S-(R*,R*)]-Azepane-1-carboxylic acid {1-[2-(4-benzyloxy-phenyl)-1-(4-methoxy-phenylcarbamoyl)-ethylcarbamoyl]-3-methyl-butyl}-amide]
IMR-32
  inhibition at 1 µM: 39%
  IC50: 1500 nM

## COc1ccccc1C(=O)N[C@@H](CC(C)C)C(=O)N[C@@H](Cc1ccc(OCc2ccccc2)cc1)C(=O)OC(C)(C)C (relative stereo) [Example 98, [S-(R*,R*)]-3-(4-Benzyloxy-phenyl)-2-[2-(2-methoxy-benzoylamino)-4-methyl-pentanoylamino]-propionic acid tert-butyl ester]
  Inhibition of Calcium Flux in IMR-32 Cells % Inhibition at 1 μM: 34%
